What was measured:
[1] = target: T1, hP2X3R (Homo sapiens, UniProt P56373); experiment: Calcium influx (Fluo-4) evoked by α,β-meATP in HEK293 cells stably expressing hP2X3R; type: cell-based; details: for IC50: antagonistic activity, HEK293 cells expressing hP2X3R, agonist at EC70; for Decrease of P2X3R antagonistic activity compared with KCB-77033: relative to hit compound KCB-77033
T1 construct: expressed in transfected cells
T1 sequence (P56373 1-397): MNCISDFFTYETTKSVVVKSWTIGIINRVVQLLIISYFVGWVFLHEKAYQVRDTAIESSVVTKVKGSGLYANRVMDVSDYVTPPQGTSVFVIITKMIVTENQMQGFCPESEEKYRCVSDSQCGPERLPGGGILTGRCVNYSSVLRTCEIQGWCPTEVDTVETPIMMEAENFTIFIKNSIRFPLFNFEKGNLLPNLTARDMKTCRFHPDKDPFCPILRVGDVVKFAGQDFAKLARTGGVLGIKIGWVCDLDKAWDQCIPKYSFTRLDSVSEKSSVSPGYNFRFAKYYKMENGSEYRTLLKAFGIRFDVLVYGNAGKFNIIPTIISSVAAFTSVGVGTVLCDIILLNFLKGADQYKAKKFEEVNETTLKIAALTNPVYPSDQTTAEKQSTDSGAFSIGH
Protocol: For the evaluation of P2XR activities, a cell-based assay system was employed to measure the level of fluorescence emission, based on Fluo-4 dye, during Ca^2+ influx evoked by αβmeATP in HEK293 cells stably expressing hP2X2/3R and hP2X3R. The library containing 8364 representative compounds for the screening of antagonistic activity was provided by the Korea Chemical Bank. The antagonistic activities were evaluated in the presence of P2X3R agonist of the concentration for EC70 value (200–250 nM for hP2X3R and 1–4 μM for hP2X2/3R highly expressed cell lines), and AF353 was used as the positive control antagonist for comparison. For the first round of screening, a single concentration (25 μM) of each library compound was tested to identify initial hit compounds, which were subsequently validated using both concentrations of 25 and 10 μM. Using a cut-off threshold of higher than 50% antagonistic activity and after confirming dose-dependency, 12 main hit compounds were selected.
3.4. Cell-Based Assay: Measurement of Calcium Influx by Fluorescence-Based Fluo-4 Dye Uptake in HEK293 Cells Expressing hP2X2/3 and hP2X3 Receptors
Human P2X3-expressing HEK293 cells were grown in DMEM supplemented with 10% fetal bovine serum and 1% antibiotic–antimycotic as a monolayer culture at 37 °C in a humidified atmosphere of 5% CO2. The 96-well black plates used in the experiments were prepared by coating them with 1× poly-D-lysine (A3890401, Thermo-Fisher Scientific Korea, Seoul, South Korea). An aliquot of 40 μL 1× poly-D-lysine was used to treat each of the wells in a flat orientation. After leaving the plates for at least 4 h to absorb the poly-D-lysine, the plates were allowed to dry for at least 6 h. The DMEM used in the culture of HEK293 cells was removed from the dish, followed by application of 3 mL 1× PBS for washing. Removal of 1× PBS was followed by application of 1 mL trypsin/EDTA, and the cells were collected by centrifugation at 1200 rpm for 2 min. The supernatant was removed, and 1 mL fresh DMEM added. The cells were resuspended in media and plates prepared with 4.8 × 10^4 cells/well in 56 μL/well. After 18 h of cell culture in the 96-well black plate, 56 μL of Fluo-4 dye (Fluo-4 Direct^TM Calcium Assay Kit, F10471, Invitrogen, Thermo-Fisher Scientific Korea, Seoul, South Korea) was added to each well, prepared according to the manufacturer’s protocol, and incubated for 50 min~1 h under culturing conditions. Then, 12.4 μL of the appropriate compound solution was added to each well, and the positive control was AF353 (A1612, Sigma Aldrich Korea, Seoul, South Korea) and the negative control was 5% DMSO. Plates were incubated at room temperature and sealed to avoid interference from light for 50 min~1 h. Flexstation 3 and its software provided by Molecular Devices was used for the measurement of fluorescence in real time of treatments using prepared α,β-meATP (M6517, Sigma Aldrich) solution to evoke calcium influx and increased cell membrane potential.
For the analysis of antagonistic activities, all data were calculated by Origin Pro 9.1 software provided by Originlab and the fitting of graphs was proceeded by the growth/sigmoidal and hill1 process within no weights for data selections. For the analysis of the behavioral assessments of pain models, all data are expressed as mean ± SEM. The dose–response data are presented as percentages of the maximum possible effect. Statistical significance was analyzed by independent t-test. The criterion for statistical significance was p < 0.05. The statistical analysis was performed using SPSS 25.0 software (IBM Corp., Armonk, NY, USA).

[2] = Metabolic stability in microsomal fraction, mouse; type: in vitro ADME; details: mouse; Table 1
[3] = Metabolic stability in microsomal fraction, rat; type: in vitro ADME; details: Table 1
[4] = Metabolic stability in microsomal fraction, human; type: in vitro ADME; details: Table 1

| Structure (SMILES) | IC50 [1] [nM] | further results |
| --- | --- | --- |
| Cc1nc2c([nH]1)C(=O)C(Cl)=C(Nc1ccc(F)cc1)C2=O [10a, 6-Chloro-5-((4-fluorophenyl)amino)-2-methyl-1H-benzo[d]imidazole-4,7-dione] | 4910 ± 821 | Decrease of P2X3R antagonistic activity compared with KCB-77033 [1]: 4–5 fold; Metabolic Stability Mouse (%) [2]: 18.4 ± 2.7%; Metabolic Stability Rat (%) [3]: 26.2 ± 3.4%; Metabolic Stability Human (%) [4]: 43.1 ± 4.7% |
| Cc1nc2c([nH]1)C(=O)C(Cl)=C(Nc1ccc(Cl)cc1)C2=O [10b, 6-Chloro-5-((4-chlorophenyl)amino)-2-methyl-1H-benzo[d]imidazole-4,7-dione] | 3720 ± 731 | Decrease of P2X3R antagonistic activity compared with KCB-77033 [1]: 4–5 fold |
| O=C1C(Cl)=C(Nc2ccc(F)cc2)C(=O)c2[nH]c(C(F)(F)F)nc21 [11a, 6-Chloro-5-((4-fluorophenyl)amino)-2-(trifluoromethyl)-1H-benzo[d]imidazole-4,7-dione] | 1020 ± 111 | Metabolic Stability Mouse (%) [2]: 95.7 ± 17.2%; Metabolic Stability Rat (%) [3]: >99%; Metabolic Stability Human (%) [4]: 81.4 ± 1.9% |
| O=C1C(Cl)=C(Nc2ccc(Cl)cc2)C(=O)c2[nH]c(C(F)(F)F)nc21 [11b, 6-Chloro-5-((4-chlorophenyl)amino)-2-(trifluoromethyl)-1H-benzo[d]imidazole-4,7-dione] | 825 ± 70 | – |
| O=C1C(Nc2ccc(F)c(F)c2)=C(Cl)C(=O)c2[nH]c(C(F)(F)F)nc21 [11c, 6-Chloro-5-((3,4-difluorophenyl)amino)-2-(trifluoromethyl)-1H-benzo[d]imidazole-4,7-dione] | 834 ± 117 | – |
| O=C1C(Nc2ccc(Cl)c(Cl)c2)=C(Cl)C(=O)c2[nH]c(C(F)(F)F)nc21 [11d, 6-Chloro-5-((3,4-dichlorophenyl)amino)-2-(trifluoromethyl)-1H-benzo[d]imidazole-4,7-dione] | 808 ± 75 | – |
| O=C1C(Nc2ccc(F)cc2Cl)=C(Cl)C(=O)c2[nH]c(C(F)(F)F)nc21 [11e, 6-Chloro-5-((2-chloro-4-fluorophenyl)amino)-2-(trifluoromethyl)-1H-benzo[d]imidazole-4,7-dione] | 660 ± 113 | – |
| O=C1C(Nc2ccc(F)c(Cl)c2)=C(Cl)C(=O)c2[nH]c(C(F)(F)F)nc21 [11f, 6-Chloro-5-((3-chloro-4-fluorophenyl)amino)-2-(trifluoromethyl)-1H-benzo[d]imidazole-4,7-dione] | 703 ± 96 | – |
| O=C1C(Nc2ccc(Cl)cc2F)=C(Cl)C(=O)c2[nH]c(C(F)(F)F)nc21 [11g, 6-Chloro-5-((4-chloro-2-fluorophenyl)amino)-2-(trifluoromethyl)-1H-benzo[d]imidazole-4,7-dione] | 526 ± 141 | – |
| O=C1C(Nc2ccc(Cl)c(F)c2)=C(Cl)C(=O)c2[nH]c(C(F)(F)F)nc21 [11h, 6-Chloro-5-((4-chloro-3-fluorophenyl)amino)-2-(trifluoromethyl)-1H-benzo[d]imidazole-4,7-dione] | 541 ± 103 | – |
| O=C1C(Nc2ccc(F)c(Br)c2)=C(Cl)C(=O)c2[nH]c(C(F)(F)F)nc21 [11i, 5-((3-Bromo-4-fluorophenyl)amino)-6-chloro-2-(trifluoromethyl)-1H-benzo[d]imidazole-4,7-dione] | 1040 ± 221 | – |
| O=C1C(Nc2ccc(Br)c(F)c2)=C(Cl)C(=O)c2[nH]c(C(F)(F)F)nc21 [11j, 5-((4-Bromo-3-fluorophenyl)amino)-6-chloro-2-(trifluoromethyl)-1H-benzo[d]imidazole-4,7-dione] | 782 ± 139 | – |
| O=C1C(Nc2ccc(Cl)cc2I)=C(Cl)C(=O)c2[nH]c(C(F)(F)F)nc21 [11k, 6-Chloro-5-((4-chloro-2-iodophenyl)amino)-2-(trifluoromethyl)-1H-benzo[d]imidazole-4,7-dione] | 774 ± 166 | – |
| COC(=O)N1CCC(NC2=C(Cl)C(=O)c3[nH]c(C(F)(F)F)nc3C2=O)CC1 [14a, Methyl-4-((6-chloro-4,7-dioxo-2-(trifluoromethyl)-4,7-dihydro-1H-benzo[d]imidazol-5-yl)amino)piperidine-1-carboxylate] | 979 ± 104 | – |
| CCC(=O)N1CCC(NC2=C(Cl)C(=O)c3[nH]c(C(F)(F)F)nc3C2=O)CC1 [14b, 6-Chloro-5-((1-propionylpiperidin-4-yl)amino)-2-(trifluoromethyl)-1H-benzo[d]imidazole-4,7-dione] | 921 ± 117 | – |
| O=C1C(NC2CCN(C(=O)c3ccccc3)CC2)=C(Cl)C(=O)c2[nH]c(C(F)(F)F)nc21 [14c, 5-((1-Benzoylpiperidin-4-yl)amino)-6-chloro-2-(trifluoromethyl)-1H-benzo[d]imidazole-4,7-dione] | 864 ± 112 | – |
| O=C1C(NC2CCN(C(=O)c3ccc(F)cc3)CC2)=C(Cl)C(=O)c2[nH]c(C(F)(F)F)nc21 [14d, 6-Chloro-5-((1-(4-fluorobenzoyl)piperidin-4-yl)amino)-2-(trifluoromethyl)-1H-benzo[d]imidazole-4,7-dione] | 450 ± 59 | – |
| O=C1C(NC2CCN(C(=O)c3ccc(Cl)cc3)CC2)=C(Cl)C(=O)c2[nH]c(C(F)(F)F)nc21 [14e, 6-Chloro-5-((1-(4-chlorobenzoyl)piperidin-4-yl)amino)-2-(trifluoromethyl)-1H-benzo[d]imidazole-4,7-dione] | 481 ± 20 | – |
| O=C1C(NC2CCN(C(=O)c3ccc(Br)cc3)CC2)=C(Cl)C(=O)c2[nH]c(C(F)(F)F)nc21 [14f, 5-((1-(4-Bromobenzoyl)piperidin-4-yl)amino)-6-chloro-2-(trifluoromethyl)-1H-benzo[d]imidazole-4,7-dione] | 804 ± 91 | – |
| O=C1C(NC2CCN(C(=O)c3ccc(Cl)c(Cl)c3)CC2)=C(Cl)C(=O)c2[nH]c(C(F)(F)F)nc21 [14g, 6-Chloro-5-((1-(3,4-dichlorobenzoyl)piperidin-4-yl)amino)-2-(trifluoromethyl)-1H-benzo[d]imidazole-4,7-dione] | 577 ± 66 | – |
| O=C1C(NC2CCN(C(=O)c3ccc(F)c(Cl)c3)CC2)=C(Cl)C(=O)c2[nH]c(C(F)(F)F)nc21 [14i, 6-Chloro-5-((1-(3-chloro-4-fluorobenzoyl)piperidin-4-yl)amino)-2-(trifluoromethyl)-1H-benzo[d]imidazole-4,7-dione] | 505 ± 51 | – |
| N#Cc1ccc(C(=O)N2CCC(NC3=C(Cl)C(=O)c4[nH]c(C(F)(F)F)nc4C3=O)CC2)cc1 [14j, 4-(4-((6-Chloro-4,7-dioxo-2-(trifluoromethyl)-4,7-dihydro-1H-benzo[d]imidazol-5-yl)amino)piperidine-1-carbonyl)benzonitrile] | 4440 ± 480 | – |
| O=C1C(NC2CCN(C(=O)c3ccc(C(F)(F)F)cc3)CC2)=C(Cl)C(=O)c2[nH]c(C(F)(F)F)nc21 [14k, 6-Chloro-2-(trifluoromethyl)-5-((1-(4-(trifluoromethyl)benzoyl)piperidin-4-yl)amino)-1H-benzo[d]imidazole-4,7-dione] | > 10000 | – |
| Cc1nc2c([nH]1)C(=O)C(Cl)=C(Nc1ccc(F)c(F)c1)C2=O [KCB-77033] | 1030 ± 73 | Metabolic Stability Mouse (%) [2]: 5.2 ± 1.6%; Metabolic Stability Rat (%) [3]: 3.4 ± 0.1%; Metabolic Stability Human (%) [4]: 9.0 ± 1.5% |

From PMC8877008, “Synthesis and Structure–Activity Relationship Studies of Benzimidazole-4,7-dione-Based P2X3 Receptor Antagonists as Novel Anti-Nociceptive Agents” (Molecules, 2022)
